Reference: ChEMBL document CHEMBL1201862, “PubChem BioAssay data set” (2004)
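Results reflect a 48-hour exposure of cells in 96-well plates to compound at five concentrations. GI50: concentration for 50% inhibition of growth.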 Activity calls are given as the source filed them. No stated cut-off is given here; in the data, active = GI50 up to about 1.1 µM and inactive = higher.

Experiments:
Assay in all cases: growth of human tumour cells (NCI), 48 h
HL-60 = system: HL-60
UO-31 = system: UO-31
KM12 = system: KM12
RXF 393 = system: RXF 393
BT-549 = system: BT-549
IGROV-1 = system: IGROV-1
NCI/ADR-RES = system: NCI/ADR-RES
NCI-H226 = system: NCI-H226
DU-145 = system: DU-145
LOX IMVI = system: LOX IMVI
HOP-92 = system: HOP-92
OVCAR-8 = system: OVCAR-8
MDA-MB-231 = system: MDA-MB-231
COLO 205 = system: COLO 205
T47D = system: T47D
U-251 = system: U-251
SF-268 = system: SF-268
K562 = system: K562
Malme-3M = system: Malme-3M
SNB-75 = system: SNB-75
OVCAR-5 = system: OVCAR-5
SK-OV-3 = system: SK-OV-3
EKVX = system: EKVX
SW-620 = system: SW-620
CCRF-CEM = system: CCRF-CEM
PC-3 = system: PC-3
OVCAR-3 = system: OVCAR-3
OVCAR-4 = system: OVCAR-4
HOP-62 = system: HOP-62
M14 = system: M14
CAKI-1 = system: CAKI-1
HCT-116 = system: HCT-116
NCI-H460 = system: NCI-H460
SK-MEL-28 = system: SK-MEL-28
UACC-257 = system: UACC-257
MDA-N = system: MDA-N
Hs-578T = system: Hs-578T
A549 = system: A549
MOLT-4 = system: MOLT-4
TK-10 = system: TK-10
SK-MEL-5 = system: SK-MEL-5
SN12C = system: SN12C
UACC-62 = system: UACC-62
NCI-H23 = system: NCI-H23
SR = system: SR
NCI-H522 = system: NCI-H522
ACHN = system: ACHN
SK-MEL-2 = system: SK-MEL-2
SNB-19 = system: SNB-19
HCT-15 = system: HCT-15
HT-29 = system: HT-29
SF-539 = system: SF-539
SF-295 = system: SF-295
MDA-MB-435 = system: MDA-MB-435
A498 = system: A498
HCC 2998 = system: HCC 2998
MCF7 = system: MCF7
786-0 = system: 786-0
RPMI-8226 = system: RPMI-8226

For `O=S(=O)(/N=C(\NO)Nc1ccc(Cl)cc1)c1ccc(-c2ccccn2)s1`, the GI50 (HL-60) was 24 µM (inactive), the GI50 (UO-31) was 80.2 µM (inactive) and the GI50 (KM12) was 86.9 µM (inactive). The GI50 (RXF 393) was 19 µM (inactive), the GI50 (BT-549) was 19.6 µM (inactive) and the GI50 (IGROV-1) was 38.5 µM (inactive). The GI50 (NCI/ADR-RES) was 30.9 µM (inactive), the GI50 (NCI-H226) was 90.8 µM (inactive) and the GI50 (DU-145) was > 100 µM (inactive). For the same molecule, the GI50 (LOX IMVI) was 57.8 µM (inactive), the GI50 (HOP-92) was 27.4 µM (inactive) and the GI50 (OVCAR-8) was 69.5 µM (inactive). The GI50 (MDA-MB-231) was 49.7 µM (inactive), the GI50 (COLO 205) was 45.1 µM (inactive) and the GI50 (T47D) was 62.4 µM (inactive). The GI50 (U-251) was 44.4 µM (inactive), the GI50 (SF-268) was 35.7 µM (inactive) and the GI50 (K562) was 50.2 µM (inactive). For the same molecule, the GI50 (Malme-3M) was 19.6 µM (inactive), the GI50 (SNB-75) was 50.7 µM (inactive) and the GI50 (OVCAR-5) was 74.1 µM (inactive). The GI50 (SK-OV-3) was 56.1 µM (inactive), the GI50 (EKVX) was 34.3 µM (inactive) and the GI50 (SW-620) was 48.1 µM (inactive). For the same molecule, the GI50 (CCRF-CEM) was 42.8 µM (inactive), the GI50 (PC-3) was 38.8 µM (inactive) and the GI50 (OVCAR-3) was 4.03 µM (inactive). The GI50 (OVCAR-4) was 16.4 µM (inactive), the GI50 (HOP-62) was 52.1 µM (inactive) and the GI50 (M14) was 56.1 µM (inactive). The GI50 (CAKI-1) was 6.25 µM (inactive), the GI50 (HCT-116) was 38.6 µM (inactive) and the GI50 (NCI-H460) was 87.3 µM (inactive). For the same molecule, the GI50 (SK-MEL-28) was 69.2 µM (inactive), the GI50 (UACC-257) was 34 µM (inactive) and the GI50 (MDA-N) was 24.2 µM (inactive). The GI50 (Hs-578T) was 28.8 µM (inactive), the GI50 (A549) was 61 µM (inactive) and the GI50 (MOLT-4) was 40.1 µM (inactive). The GI50 (TK-10) was 61.5 µM (inactive), the GI50 (SK-MEL-5) was 31.4 µM (inactive) and the GI50 (SN12C) was 24.4 µM (inactive). The GI50 (UACC-62) was 44.2 µM (inactive), the GI50 (NCI-H23) was 37.3 µM (inactive) and the GI50 (SR) was > 100 µM (inactive). The GI50 (NCI-H522) was 11.5 µM (inactive), the GI50 (ACHN) was 35.6 µM (inactive) and the GI50 (SK-MEL-2) was 46 µM (inactive). For the same molecule, the GI50 (SNB-19) was > 100 µM (inactive), the GI50 (HCT-15) was 39.7 µM and the GI50 (HT-29) was 82.8 µM (inactive). The GI50 (SF-539) was 41.4 µM (inactive), the GI50 (SF-295) was 52.1 µM (inactive) and the GI50 (MDA-MB-435) was 27.5 µM (inactive).
With `N#CC12C(=O)N3C(=NC(c4ccccc4)NC3c3ccccc3)C1(C#N)C(c1ccccc1)NC1=C2CCCC1` (stereo unspecified) the GI50 (HL-60) was > 100 µM (inactive), the GI50 (UO-31) was > 100 µM (inactive) and the GI50 (KM12) was > 100 µM (inactive). For the same molecule, the GI50 (RXF 393) was > 100 µM (inactive), the GI50 (BT-549) was > 100 µM (inactive) and the GI50 (IGROV-1) was > 100 µM (inactive). For the same molecule, the GI50 (NCI/ADR-RES) was > 100 µM (inactive), the GI50 (NCI-H226) was > 100 µM (inactive) and the GI50 (DU-145) was > 100 µM (inactive). The GI50 (LOX IMVI) was > 100 µM (inactive), the GI50 (HOP-92) was > 100 µM (inactive) and the GI50 (OVCAR-8) was > 100 µM (inactive). For the same molecule, the GI50 (MDA-MB-231) was > 100 µM (inactive), the GI50 (COLO 205) was > 100 µM (inactive) and the GI50 (T47D) was > 100 µM (inactive). For the same molecule, the GI50 (U-251) was > 100 µM (inactive), the GI50 (SF-268) was > 100 µM (inactive) and the GI50 (K562) was > 100 µM (inactive). The GI50 (Malme-3M) was > 100 µM (inactive), the GI50 (SNB-75) was > 100 µM (inactive) and the GI50 (OVCAR-5) was > 100 µM (inactive). For the same molecule, the GI50 (A498) was > 100 µM (inactive), the GI50 (SK-OV-3) was > 100 µM (inactive) and the GI50 (HCC 2998) was > 100 µM (inactive). For the same molecule, the GI50 (EKVX) was > 100 µM (inactive), the GI50 (SW-620) was > 100 µM (inactive) and the GI50 (CCRF-CEM) was 30.3 µM (inactive). For the same molecule, the GI50 (PC-3) was > 100 µM (inactive), the GI50 (OVCAR-3) was > 100 µM (inactive) and the GI50 (MCF7) was > 100 µM (inactive). The GI50 (OVCAR-4) was > 100 µM (inactive), the GI50 (HOP-62) was > 100 µM (inactive) and the GI50 (M14) was > 100 µM (inactive). The GI50 (CAKI-1) was > 100 µM (inactive), the GI50 (HCT-116) was > 100 µM (inactive) and the GI50 (786-0) was > 100 µM (inactive). The GI50 (NCI-H460) was > 100 µM (inactive), the GI50 (SK-MEL-28) was > 100 µM (inactive) and the GI50 (UACC-257) was > 100 µM (inactive). The GI50 (MDA-N) was > 100 µM (inactive), the GI50 (Hs-578T) was > 100 µM (inactive) and the GI50 (A549) was > 100 µM (inactive). The GI50 (MOLT-4) was > 100 µM (inactive), the GI50 (TK-10) was > 100 µM (inactive) and the GI50 (SK-MEL-5) was > 100 µM (inactive). For the same molecule, the GI50 (SN12C) was > 100 µM (inactive), the GI50 (UACC-62) was > 100 µM (inactive) and the GI50 (NCI-H23) was > 100 µM (inactive). For the same molecule, the GI50 (NCI-H522) was > 100 µM (inactive), the GI50 (ACHN) was > 100 µM (inactive) and the GI50 (SK-MEL-2) was > 100 µM (inactive). For the same molecule, the GI50 (SNB-19) was > 100 µM (inactive), the GI50 (HCT-15) was greater than 100 µM and the GI50 (HT-29) was > 100 µM (inactive). For the same molecule, the GI50 (SF-295) was > 100 µM (inactive), the GI50 (RPMI-8226) was > 100 µM (inactive) and the GI50 (MDA-MB-435) was > 100 µM (inactive).
